Assay: Dissolution of aceclofenac in pure artificial gastric juice (paddle method)
Assay type: physicochemical
Description: The pharmaceutical preparation containing acelcofenac was completely dissolved in 500 ml of an ethanol solution containing phosphate buffer (pH 6.8) at a volume ratio of 50%, where a preparation further containing substances of low solubility was shaken for 10 min. The resultant solution was centrifuged at 15,000 rpm for 2 min, and then filtered with a 0.45 μm membrane filter. After properly diluting 1 ml of the filtered solution, sample was used in quantification of aceclofenac, using HPLC. In a analysis of aceclofenac, a column was C18 ODS column (4.6×150 mm, 5 μm), an absorbance was at a wave length of 282 nm, a mobile phase was a mixture of MeOH:0.02 M KH2PO4 (65:35), a flow rate was 1 ml/min. 20 μl of sample was injected. Quantification of aceclofenac was accomplished with width ratio of aceclofenac and internal standard (Ethyl paraben).
Dissolution rate of acelcofenac contained in the pharmaceutical preparation was analyzed according to the dissolution test method disclosed in a guidebook “Korea Pharmacopeia (7th revision)”. A NaCl—HCl buffer solution (pH 1.4±0.1) was used as artificial gastric juice, supplemented with Tween 80 in a volume ratio of 0.3% according to intended use. 0.02 M phosphate-buffered solution (pH 6.8±0.1) was used as an artificial intestinal juice. Dissolution was performed according to the paddle method at a stirring rate of 50 rpm and a dissolution temperature of 37±0.5° C., using 500 ml of dissolution solution. […] The collected sample was centrifuged at 15,000 rpm for 2 min and filtered using a 0.45 μm membrane filter. Quantification of aceclofenac was accomplished by using HPLC. In analyzing the dissolution rate of aceclofenac, column was C18 ODS column (4.6×150 mm, 5 μm), absorbance was a wave length of 282 nm, a mobile phase was a mixture of MeOH:0.02 M KH2PO4 (65:35), and a flow rate was 1 ml/min. 20 μl of sample was injected. Quantification of aceclofenac was accomplished with width ratio of aceclofenac and internal standard (Ethyl paraben) Dissolution rate (%) of aceclofenac contained in the solid powder preparations, prepared in example, was measured according to Experimental 5. Content of aceclofenac obtained in Experimental Example 4 was used as 100% and dissolution rate of aceclofenac contained in the solid powder preparations prepared in example was given as a percentage. Dissolution concentration (μg/ml) and dissolution rate (%) of aceclofenac contained in solid powder preparation in artificial gastric juice were measured, the results are given in Tables 1 to 3, below, […]

Dissolution concentration (15 min): 0.075 µg/mL | Dissolution rate (15 min): (0.04) % | Dissolution concentration (30 min): 0.063 µg/mL | Dissolution rate (30 min): (0.03) % | Dissolution concentration (45 min): 0.088 µg/mL | Dissolution rate (45 min): (0.05) % | Dissolution concentration (60 min): 0.090 µg/mL | Dissolution rate (60 min): (0.05) % | Dissolution concentration (90 min): 0.236 µg/mL | Dissolution rate (90 min): (0.12) %
Structure (SMILES): O=C(O)COC(=O)Cc1ccccc1Nc1c(Cl)cccc1Cl [Aceclofenac]
